Tests used:
Format in all cases: in vivo
Ostrinia nubilalis = experiment: Maize plot spray test (KnockOut vs conventional maize), action against Ostrinia nubilalis; details: 6 days
Protocol: (§1) A plot (a) planted with maize cv. KnockOut® and an adjacent plot (b) of the same size which is planted with conventional maize, both showing natural infestation with Ostrinia nubilalis, Spodoptera spp. or Heliothis, are sprayed with an aqueous emulsion spray mixture comprising 200, 100, 50, 10, 5, 1 ppm of Ti-435. Immediately afterwards, plot (b) is treated with an emulsion spray mixture comprising 200, 100, 50, 10, 5, 1 ppm of the endotoxin expressed by KnockOut®. Evaluation takes place 6 days later. The percentage reduction in population (% action) is determined by comparing the number of dead pests on the plants of plot (a) with that on the plants of plot (b).
as §1, with “thiamethoxam.” for “Ti-435.”
as §1, with “imidacloprid.” for “Ti-435.”

Heliothis spp. = experiment: Maize plot spray test (KnockOut vs conventional maize), action against Heliothis spp.; details: 6 days
Protocol: as §1
as §1, with “thiamethoxam.” for “Ti-435.”
as §1, with “imidacloprid.” for “Ti-435.”

Diabrotica balteata = experiment: Maize seedling spray test, action against Diabrotica balteata; details: 6 days
Protocol: A plot (a) planted with maize seedlings cv. KnockOut® and an adjacent plot (b) of the same size which is planted with conventional maize are sprayed with an aqueous emulsion of a spray mixture comprising 400 ppm thiamethoxam. Immediately afterwards, plot (b) is treated with an emulsion spray mixture comprising 400 ppm of the endotoxin expressed by KnockOut®. After the spray coating has dried on, the seedlings are populated with 10 Diabrotica balteata larvae in the second stage and transferred to a plastic container. The test is evaluated 6 days later. The percentage reduction in population (% action) is determined by comparing the number of dead pests on the plants of plot (a) with that on the plants of plot (b).

Aphis gossypii = experiment: Cotton seedling spray test, action against Aphis gossypii; details: 20° C, 3 and 6 days; for control (percentage reduction in population, % action): spray 400 ppm; for control level: plot (b) conventional cotton seedlings, 400 ppm compound, then 400 ppm δ-endotoxin CryIIIa
Protocol: Cotton seedlings on a plot (a) expressing the δ-endotoxin CryIIIa on a plot (a) and conventional cotton seedlings on a plot (b) are infected with Aphis gossypi and subsequently sprayed with a spray mixture comprising 400 ppm thiamethoxam. Immediately afterwards, plot (b) is treated with an emulsion spray mixture comprising 400 ppm of the δ-endotoxin CryIIIa. The seedlings of plot (a) and (b) are then incubated at 20° C. The test is evaluated after 3 and 6 days.
The percentage reduction in population (% action) is determined by comparing the number of dead pests on the plants of plot (a) with that on the plants of plot (b).
Cotton seedlings expressing the δ-endotoxin CryIA(c) on a plot (a) and conventional cotton seedlings on a plot (b) are infected with Aphis gossypii and subsequently sprayed with a spray mixture comprising 400 ppm thiamethoxam. Immediately afterwards, plot (b) is treated with an emulsion spray mixture comprising 400 ppm of the δ-endotoxin CryIIIa. The seedlings of plot (a) and (b) are then incubated at 20° C. The test is evaluated after 3 and 6 days.

Nephotettix cincticeps = experiment: Rice plant pot test, action against Nephotettix cincticeps (systemic); details: 6 days; for control (percentage reduction in population, % action): placed in aqueous emulsion with 400 ppm compound; for control level: pot (B) conventional rice plants
Protocol: (§2) Rice plants expressing the δ-endotoxin CryIa(b) are planted in a in pot (A) and conventional ice plants are planted in a pot (B). Pot (A) is placed in an aqueous emulsion containing 400 ppm thiamethoxam, whereas plot (B) is placed in a pot containing 400 ppm thiamethoxam and 400 ppm of the δ-endotoxin CryI(b). The plants are subsequently infected with Nephotettix cincticeps larvae of the second and third stage. The test is evaluated after 6 days.
The percentage reduction in population (% action) is determined by comparing the number of dead pests on the plants of pot (A) with that on the plants of pot (B).
as §2, with “CryIa(c)” for “CryIa(b)”, “CryI(c).” for “CryI(b).”

Heliothis virescens = experiment: Spray test on young cotton plants, action against Heliothis virescens larvae; details: non-transgenic cotton treated with compound and conventional CryIIIA-toxin, each 100, 50, 10, 5, 1 ppm
[1] = plot (a) maize cv. KnockOut, spray 200, 100, 50, 10, 5, 1 ppm, natural infestation
[2] = plot (b) conventional maize, compound 200, 100, 50, 10, 5, 1 ppm, then same ppm of the endotoxin expressed by KnockOut

SMILES: CN1COCN(Cc2cnc(Cl)s2)/C1=N\[N+](=O)[O-] [thiamethoxam, 5-(2-Chlorthiazol-5-ylmethyl)-3-methyl-4-nitroimino-perhydro-1,3,5-oxadiazin]
- control (percentage reduction in population, % action) (Ostrinia nubilalis; [1]): Improved control
- control level (Ostrinia nubilalis; [2]): ≤ 60%
- control (percentage reduction in population, % action) (Heliothis spp.; [1]): Improved control
- control level (Heliothis spp.; [2]): ≤ 60%
- control (percentage reduction in population, % action) (Diabrotica balteata; plot (a) maize seedlings cv. KnockOut, spray 400 ppm, larvae in the second stage): Improved control
- control level (Diabrotica balteata; plot (b) conventional maize, 400 ppm compound, then 400 ppm of the endotoxin expressed by KnockOut): ≤ 60%
- control (percentage reduction in population, % action) (Aphis gossypii; plot (a) cotton seedlings expressing δ-endotoxin CryIIIa): Improved control
- control (percentage reduction in population, % action) (Aphis gossypii; plot (a) cotton seedlings expressing δ-endotoxin CryIa(c)): Improved control
- control level (Aphis gossypii): ≤ 60%
- control level (Aphis gossypii; comparison arm for CryIA(c) cotton): ≤ 60%
- control (percentage reduction in population, % action) (Nephotettix cincticeps; pot (A) rice plants expressing δ-endotoxin CryIa(b)): Improved control
- control (percentage reduction in population, % action) (Nephotettix cincticeps; pot (A) rice plants expressing δ-endotoxin CryIa(c)): Improved control
- control level (Nephotettix cincticeps; 400 ppm compound and 400 ppm δ-endotoxin CryI(b)): ≤ 60%
- control level (Nephotettix cincticeps; 400 ppm compound and 400 ppm δ-endotoxin CryI(c)): ≤ 60%
- control of the tested insects (percentage reduction in population or feeding damage, % action) (Heliothis virescens; comparison arm for CryIIIA cotton): insufficient
- control of the tested insects (percentage reduction in population or feeding damage, % action) (Heliothis virescens; comparison arm for CryIa(c) cotton): insufficient

— patent publication US8399378B2, “Use of neonicotinoids in pest control” (Syngenta Crop Protection LLC, priority 1998, dated 2013)
